{"source": "PubChem BioAssay AID2060619", "about": "(Molecular Pharmacology Branch, DTP, NCI, 2025)", "system": "323965-272-R-J2-PDC complex spheroid viability", "experiment": "Anticancer human tumor 323965-272-R-J2-PDC patient-derived pancreatic carcinoma cell line growth inhibition [CLK]", "conditions": "for pIC50: curve of first compound; for viability, T/C: stronger effect = lower value", "summary_of_the_method": "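Multi-cell-type spheroids combined patient-derived tumor cells with HUVEC endothelial cells and human mesenchymal stem cells. Paired agents were dosed in half-log steps down from about clinical Cmax, or from 10 microM where Cmax was unknown.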", "note": "pIC50: −log10 of the molar value."}
{"molecule": "CC(C)CC(NC(=O)C(Cc1ccccc1)NC(=O)c1cnccn1)B(O)O", "note": "(centres undefined) + CN1CCN(c2cc(C(=O)Nc3cc4cc(-c5cnn(C)c5)ccc4cn3)ccn2)CC1;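 note: spheroids exposed to agents for seven days before readout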;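 for viability, T/C: percent of DMSO vehicle control wells so 100% = untreated growth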", "values": [{"measurement": "pIC50", "setting": "second compound 0.0316 µM", "value": 8.38}, {"measurement": "pIC50", "setting": "second compound 0.1 µM", "value": 8.38}, {"measurement": "pIC50", "setting": "second compound 0.316 µM", "value": "> 9.02"}, {"measurement": "pIC50", "setting": "second compound 1 µM", "value": "> 9.02"}, {"measurement": "pIC50", "setting": "second compound 3.16 µM", "value": "> 9.02"}, {"measurement": "pIC50", "setting": "second compound 10 µM", "value": "> 9.02"}, {"measurement": "viability, T/C", "setting": "second compound 0.0316 µM, first compound 0.000949 µM", "value": 102, "unit": "%"}, {"measurement": "viability, T/C", "setting": "second compound 0.0316 µM, first compound 0.003 µM", "value": 67.1, "unit": "%"}, {"measurement": "viability, T/C", "setting": "second compound 0.0316 µM, first compound 0.00949 µM", "value": 5.27, "unit": "%"}, {"measurement": "viability, T/C", "setting": "second compound 0.0316 µM, first compound 0.03 µM", "value": 0.67, "unit": "%"}, {"measurement": "viability, T/C", "setting": "second compound 0.0316 µM, first compound 0.0949 µM", "value": 0.27, "unit": "%"}, {"measurement": "viability, T/C", "setting": "second compound 0.0316 µM, first compound 0.3 µM", "value": 0.2, "unit": "%"}, {"measurement": "viability, T/C", "setting": "second compound 0.1 µM, first compound 0.000949 µM", "value": 70.2, "unit": "%"}, {"measurement": "viability, T/C", "setting": "second compound 0.1 µM, first compound 0.003 µM", "value": 67.7, "unit": "%"}, {"measurement": "viability, T/C", "setting": "second compound 0.1 µM, first compound 0.00949 µM", "value": 4.08, "unit": "%"}, {"measurement": "viability, T/C", "setting": "second compound 0.1 µM, first compound 0.03 µM", "value": 0.54, "unit": "%"}, {"measurement": "viability, T/C", "setting": "second compound 0.1 µM, first compound 0.0949 µM", "value": 0.24, "unit": "%"}, {"measurement": "viability, T/C", "setting": "second compound 0.1 µM, first compound 0.3 µM", "value": 0.21, "unit": "%"}, {"measurement": "viability, T/C", "setting": "second compound 0.316 µM, first compound 0.000949 µM", "value": 27.6, "unit": "%"}, {"measurement": "viability, T/C", "setting": "second compound 0.316 µM, first compound 0.003 µM", "value": 27.3, "unit": "%"}, {"measurement": "viability, T/C", "setting": "second compound 0.316 µM, first compound 0.00949 µM", "value": 2.6, "unit": "%"}, {"measurement": "viability, T/C", "setting": "second compound 0.316 µM, first compound 0.03 µM", "value": 0.27, "unit": "%"}, {"measurement": "viability, T/C", "setting": "second compound 0.316 µM, first compound 0.0949 µM", "value": 0.18, "unit": "%"}, {"measurement": "viability, T/C", "setting": "second compound 0.316 µM, first compound 0.3 µM", "value": 0.3, "unit": "%"}, {"measurement": "viability, T/C", "setting": "second compound 1 µM, first compound 0.000949 µM", "value": 5.63, "unit": "%"}, {"measurement": "viability, T/C", "setting": "second compound 1 µM, first compound 0.003 µM", "value": 1.53, "unit": "%"}, {"measurement": "viability, T/C", "setting": "second compound 1 µM, first compound 0.00949 µM", "value": 0.21, "unit": "%"}, {"measurement": "viability, T/C", "setting": "second compound 1 µM, first compound 0.03 µM", "value": 0.19, "unit": "%"}, {"measurement": "viability, T/C", "setting": "second compound 1 µM, first compound 0.0949 µM", "value": 0.2, "unit": "%"}, {"measurement": "viability, T/C", "setting": "second compound 1 µM, first compound 0.3 µM", "value": 1.89, "unit": "%"}, {"measurement": "viability, T/C", "setting": "second compound 3.16 µM, first compound 0.000949 µM", "value": 5.74, "unit": "%"}, {"measurement": "viability, T/C", "setting": "second compound 3.16 µM, first compound 0.003 µM", "value": 2.25, "unit": "%"}, {"measurement": "viability, T/C", "setting": "second compound 3.16 µM, first compound 0.00949 µM", "value": 1.98, "unit": "%"}, {"measurement": "viability, T/C", "setting": "second compound 3.16 µM, first compound 0.03 µM", "value": 0.31, "unit": "%"}, {"measurement": "viability, T/C", "setting": "second compound 3.16 µM, first compound 0.0949 µM", "value": 0.19, "unit": "%"}, {"measurement": "viability, T/C", "setting": "second compound 3.16 µM, first compound 0.3 µM", "value": 2.14, "unit": "%"}, {"measurement": "viability, T/C", "setting": "second compound 10 µM, first compound 0.000949 µM", "value": 4.58, "unit": "%"}, {"measurement": "viability, T/C", "setting": "second compound 10 µM, first compound 0.003 µM", "value": 2.17, "unit": "%"}, {"measurement": "viability, T/C", "setting": "second compound 10 µM, first compound 0.00949 µM", "value": 0.45, "unit": "%"}, {"measurement": "viability, T/C", "setting": "second compound 10 µM, first compound 0.03 µM", "value": 0.32, "unit": "%"}, {"measurement": "viability, T/C", "setting": "second compound 10 µM, first compound 0.0949 µM", "value": 5.38, "unit": "%"}, {"measurement": "viability, T/C", "setting": "second compound 10 µM, first compound 0.3 µM", "value": 2.98, "unit": "%"}]}
{"molecule": "Cn1ncnc1[C@H]1c2n[nH]c(=O)c3cc(F)cc(c23)N[C@@H]1c1ccc(F)cc1", "note": "+ CN1CCN(c2cc(C(=O)Nc3cc4cc(-c5cnn(C)c5)ccc4cn3)ccn2)CC1", "values": [{"measurement": "pIC50", "setting": "second compound 0.0316 µM", "value": "< 7.00"}, {"measurement": "pIC50", "setting": "second compound 0.1 µM", "value": "< 7.00"}, {"measurement": "pIC50", "setting": "second compound 0.316 µM", "value": "> 9.50"}, {"measurement": "pIC50", "setting": "second compound 1 µM", "value": "> 9.50"}, {"measurement": "pIC50", "setting": "second compound 3.16 µM", "value": "> 9.50"}, {"measurement": "pIC50", "setting": "second compound 10 µM", "value": "> 9.50"}, {"measurement": "viability, T/C", "setting": "second compound 0.0316 µM, first compound 0.000316 µM", "value": 96.1, "unit": "%"}, {"measurement": "viability, T/C", "setting": "second compound 0.0316 µM, first compound 0.001 µM", "value": 96, "unit": "%"}, {"measurement": "viability, T/C", "setting": "second compound 0.0316 µM, first compound 0.00316 µM", "value": 90, "unit": "%"}, {"measurement": "viability, T/C", "setting": "second compound 0.0316 µM, first compound 0.01 µM", "value": 93.3, "unit": "%"}, {"measurement": "viability, T/C", "setting": "second compound 0.0316 µM, first compound 0.0316 µM", "value": 97, "unit": "%"}, {"measurement": "viability, T/C", "setting": "second compound 0.0316 µM, first compound 0.1 µM", "value": 68.3, "unit": "%"}, {"measurement": "viability, T/C", "setting": "second compound 0.1 µM, first compound 0.000316 µM", "value": 67.6, "unit": "%"}, {"measurement": "viability, T/C", "setting": "second compound 0.1 µM, first compound 0.001 µM", "value": 65.7, "unit": "%"}, {"measurement": "viability, T/C", "setting": "second compound 0.1 µM, first compound 0.00316 µM", "value": 61.6, "unit": "%"}, {"measurement": "viability, T/C", "setting": "second compound 0.1 µM, first compound 0.01 µM", "value": 74, "unit": "%"}, {"measurement": "viability, T/C", "setting": "second compound 0.1 µM, first compound 0.0316 µM", "value": 61.1, "unit": "%"}, {"measurement": "viability, T/C", "setting": "second compound 0.1 µM, first compound 0.1 µM", "value": 46.1, "unit": "%"}, {"measurement": "viability, T/C", "setting": "second compound 0.316 µM, first compound 0.000316 µM", "value": 23.8, "unit": "%"}, {"measurement": "viability, T/C", "setting": "second compound 0.316 µM, first compound 0.001 µM", "value": 26.9, "unit": "%"}, {"measurement": "viability, T/C", "setting": "second compound 0.316 µM, first compound 0.00316 µM", "value": 23, "unit": "%"}, {"measurement": "viability, T/C", "setting": "second compound 0.316 µM, first compound 0.01 µM", "value": 27.9, "unit": "%"}, {"measurement": "viability, T/C", "setting": "second compound 0.316 µM, first compound 0.0316 µM", "value": 24.6, "unit": "%"}, {"measurement": "viability, T/C", "setting": "second compound 0.316 µM, first compound 0.1 µM", "value": 21.8, "unit": "%"}, {"measurement": "viability, T/C", "setting": "second compound 1 µM, first compound 0.000316 µM", "value": 2.64, "unit": "%"}, {"measurement": "viability, T/C", "setting": "second compound 1 µM, first compound 0.001 µM", "value": 3.21, "unit": "%"}, {"measurement": "viability, T/C", "setting": "second compound 1 µM, first compound 0.00316 µM", "value": 3.5, "unit": "%"}, {"measurement": "viability, T/C", "setting": "second compound 1 µM, first compound 0.01 µM", "value": 2.88, "unit": "%"}, {"measurement": "viability, T/C", "setting": "second compound 1 µM, first compound 0.0316 µM", "value": 5.47, "unit": "%"}, {"measurement": "viability, T/C", "setting": "second compound 1 µM, first compound 0.1 µM", "value": 3.21, "unit": "%"}, {"measurement": "viability, T/C", "setting": "second compound 3.16 µM, first compound 0.000316 µM", "value": 4.62, "unit": "%"}, {"measurement": "viability, T/C", "setting": "second compound 3.16 µM, first compound 0.001 µM", "value": 3.78, "unit": "%"}, {"measurement": "viability, T/C", "setting": "second compound 3.16 µM, first compound 0.00316 µM", "value": 5.87, "unit": "%"}, {"measurement": "viability, T/C", "setting": "second compound 3.16 µM, first compound 0.01 µM", "value": 3.77, "unit": "%"}, {"measurement": "viability, T/C", "setting": "second compound 3.16 µM, first compound 0.0316 µM", "value": 4.01, "unit": "%"}, {"measurement": "viability, T/C", "setting": "second compound 3.16 µM, first compound 0.1 µM", "value": 4.38, "unit": "%"}, {"measurement": "viability, T/C", "setting": "second compound 10 µM, first compound 0.000316 µM", "value": 4.34, "unit": "%"}, {"measurement": "viability, T/C", "setting": "second compound 10 µM, first compound 0.001 µM", "value": 4.75, "unit": "%"}, {"measurement": "viability, T/C", "setting": "second compound 10 µM, first compound 0.00316 µM", "value": 6.41, "unit": "%"}, {"measurement": "viability, T/C", "setting": "second compound 10 µM, first compound 0.01 µM", "value": 4.13, "unit": "%"}, {"measurement": "viability, T/C", "setting": "second compound 10 µM, first compound 0.0316 µM", "value": 4.28, "unit": "%"}, {"measurement": "viability, T/C", "setting": "second compound 10 µM, first compound 0.1 µM", "value": 4.85, "unit": "%"}]}
